Assay results published in patent US20180111913A1, “SUBSTITUTED BENZOFURAN DERIVATIVES AS NOVEL ANTIMYCOBACTERIAL AGENTS” (priority 2015, published 2018).
Values after ≈ are worked out from the molar mass of the structure shown. Like-named read-outs stand apart in the source and are kept apart here.

Experiments:
Mtb strain mc^27000 = assay: microbe, parasite or virus in culture; type: cell-based, Mycobacterium tuberculosis; settings: for MIC: read-out: MIC
[1] = target: Mtb Pks13-TE domain (wild-type) (Mycobacterium tuberculosis, UniProt I6X8D2); assay: biochemical; type: biochemical
[2] = test system: human dermal fibroblast (HDF) cells
[3] = Mtb mc^27000, liquid medium, 96-well plates
[4] = Pks13-TE, 20 μM 4-MUH, read-out: IC50
[5] = Mycobacterium tuberculosis, Mtb mc^27000, liquid medium, 96-well plates
[6] = Mycobacterium tuberculosis, read-out: percentage inhibition observed (incomplete inhibition)

Mtb Pks13-TE domain (wild-type), sequence (I6X8D2 1451-1733): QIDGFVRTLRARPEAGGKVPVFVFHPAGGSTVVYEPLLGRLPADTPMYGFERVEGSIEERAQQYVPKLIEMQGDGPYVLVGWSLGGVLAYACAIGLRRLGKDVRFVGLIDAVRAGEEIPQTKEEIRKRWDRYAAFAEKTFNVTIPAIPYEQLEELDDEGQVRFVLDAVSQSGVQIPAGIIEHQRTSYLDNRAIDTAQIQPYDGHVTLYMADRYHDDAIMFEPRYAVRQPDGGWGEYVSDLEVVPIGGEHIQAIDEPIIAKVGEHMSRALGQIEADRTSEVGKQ

| Compound | IC50 [1, 4] [µM] | MIC (Mtb strain mc^27000; [5]) [µM] | other results |
| --- | --- | --- | --- |
| CCOC(=O)c1c(-c2ccccc2)oc2cc(O)cc(CCN)c12 [compound 55] | 4 |  | MIC (Mtb strain mc^27000; [3]): >20 µM |
| CCOC(=O)c1c(-c2ccccc2)oc2ccc(O)c(CC3CCCCC3)c12 [compound 16] | 19.6 |  | MIC (Mtb strain mc^27000; [3]): 5.2 µM (≈ 1.97 µg/mL); MIC (Mtb strain mc^27000; […], mean ± s.d. of triplicates, NI: no inhibition): 5.2 µM (≈ 1.97 µg/mL); IC50 ([1]; Mtb Pks13-TE domain, mean ± s.d. of triplicates, read-out: IC50): 19.6 ± 1.4 µM; loss of inhibitory activity / higher IC50 against Pks13-TE compared to the test compound ([1]; relative to test compound): > 70 fold |
| CNC(=O)c1c(-c2ccc(O)cc2)oc2ccc(O)c(CN3CCC(CO)C3)c12 (stereo not drawn) [compound 122] | 0.51 | 1 (≈ 0.396 µg/mL) |  |
| CCOC(=O)c1c(-c2ccc(F)cc2)oc2cc(O)cc(CCNS(C)(=O)=O)c12 [compound 74] |  |  | Survival vs. Control ([2]; HDF cell survival relative to DMSO-only control at the first (or only) Non-Toxic Concentration value): 88%; Non-Toxic Concentration ([2]; human, 48 h): 25 µM; IC50 ([1]; Pks13 enzyme inhibition, read-out: Pks13 IC50): 20 µM |
| CCOC(=O)c1c(-c2ccccc2)oc2ccc(O)c(CCN[C@@H](Cc3c[nH]cn3)C(=O)O)c12 [compound 245] | 2.7 | > 40 |  |
| CCOC(=O)c1c(-c2ccccc2)oc2ccc(O)c(CCCN3CCC(CCCO)C3)c12 (stereo not drawn) [compound 162] | 2.7 | 2.5 (≈ 1.13 µg/mL) |  |
| CCOC(=O)c1c(-c2ccc(O)cc2)oc2ccc(O)c(CN3CCCC(CO)C3)c12 (stereo not drawn) [compound 134] | 0.4 | 2.5 (≈ 1.06 µg/mL) |  |
| CCOC(=O)c1c(-c2ccccc2)oc2ccc(O)c(CN3CCC(N4CCCCC4)CC3)c12 [compound 98] | > 20 |  | inhibition at 20 µM (Mtb strain mc^27000; [6]): 40% |
| CCOC(=O)CCCC1CCN(CCCc2c(O)ccc3oc(-c4ccccc4)c(C(=O)OCC)c23)C1 (stereo not drawn) [compound 172] | 0.7 | 2.9 (≈ 1.47 µg/mL) |  |
| NC1CCN(C(=O)c2c(-c3ccccc3)oc3ccc(O)c(CN4CCCCC4)c23)CC1 [compound 54] | 5.3 | 20 (≈ 8.67 µg/mL) |  |
| O=C(c1c(-c2ccccc2)oc2ccc(O)c(CN3CCCCC3)c12)N1CCCCC1 [compound 43] | 0.32 |  | MIC (Mtb strain mc^27000; [3]): >10 µM |
| CCOC(=O)c1c(-c2ccc(F)cc2)oc2cc(O)cc(CN3CCCCC3)c12 [compound 51] | 0.8 |  | MIC (Mtb strain mc^27000; [3]): >30 µM |
| OCc1c(-c2ccccc2)oc2ccc(O)c(CN3CCC(N4CCCCC4)CC3)c12 [compound 99] |  |  | inhibition at 20 µM (Mtb strain mc^27000; [6]): 28%; IC50 ([1]; Pks13-TE, read-out: IC50 (μM), given as NB / NI): > 20 µM |
| CNC(=O)c1c(-c2ccccc2)oc2ccc(OC)c(C(O)c3ccccc3)c12 (stereo not drawn) [compound 20] | 50 | 50 (≈ 19.4 µg/mL) |  |
| COC(=O)c1c(-c2ccccc2)oc2ccc(O)c(CCCN3CCCC3)c12 [compound 104] | 2 | 1.8 (≈ 0.683 µg/mL) |  |
| CCOC(=O)c1c(-c2ccc(F)cc2)oc2ccc(O)c(CN3CCCCC3)c12 [compound 25] | 0.35 |  | MIC (Mtb strain mc^27000; [3]): 1.5 µM (≈ 0.596 µg/mL) |
| CNC(=O)c1c(-c2ccc(O)cc2)oc2ccc(O)c(CN3CCC(C(N)=O)CC3)c12 [compound 123] | 1.6 | > 40 |  |
| CCNC(=O)c1c(-c2ccccc2)oc2ccc(O)c(CN3CCCCC3)c12 [compound 18] | 0.36 | 14 (≈ 5.3 µg/mL) |  |
| CNC(=O)c1c(-c2ccc(O)cc2)oc2ccc(O)c(CN3CCC(C#N)CC3)c12 [compound 124] | 0.25 | 20 (≈ 8.11 µg/mL) |  |
| CNC(=O)c1c(-c2ccccc2)oc2cc(OCC(=O)OC)cc(CN3CCCCC3)c12 [compound 93] | 10 |  | inhibition at 40 µM (Mtb strain mc^27000; Mycobacterium tuberculosis, at 40 μM, read-out: percentage inhibition observed (incomplete inhibition)): 16% |
| CCOC(=O)c1c(-c2ccc(F)cc2)oc2cc(O)cc(CN3CCCCC3)c12 [compound 49] | 0.4 |  | MIC (Mtb strain mc^27000; [3]): >10 µM |
| CCOC(=O)c1c(-c2ccccc2)oc2ccc(O)c(CCN3CCCC3C(=O)O)c12 (stereo not drawn) [compound 244] | > 40 | 20 to 40 (≈ 8.47 to 16.9 µg/mL) |  |
| CCOC(=O)c1c(-c2ccccc2)oc2ccc(O)c(CCCN3CCSC3C)c12 (stereo not drawn) [compound 174] | 1.25 | 4.7 (≈ 2 µg/mL) |  |
| CNC(=O)c1c(-c2ccc(O)cc2)oc2ccc(O)c(CNC3CCCC3)c12 [compound 128] | 1 | 1 (≈ 0.38 µg/mL) |  |
| CNC(=O)c1c(-c2ccccc2)oc2ccc(O)c(CCNC3CCCC3)c12 [compound 141] | 1.4 |  | MIC (Mtb strain mc^27000; [3]): 10.0 µM (≈ 3.78 µg/mL) |
| CNC(=O)c1c(-c2ccccc2)oc2cccc(CN3CCCCC3)c12 [compound 33] | 45 | > 50 |  |
| CNC(=O)c1c(-c2ccccc2)oc2ccc(O)c(CCCN3CCCC3)c12 [compound 105] | 5 | 5 (≈ 1.89 µg/mL) |  |
| CC[C@@H](CO)NCCc1c(O)ccc2oc(-c3ccccc3)c(C(=O)NC)c12 [compound 235] | 2.3 | > 40 |  |
